Results: US20250368666A1, “INDAZOLE COMPOUNDS” (TYRA BIOSCIENCES, INC., priority 2022, published 2025)
pIC50: −log10 of the molar value. Read-outs that look alike come from different tables or passages of the source.

Key:
FGFR3 = biological target: T1, FGFR3 (Homo sapiens, UniProt P22607); experiment: Kinase binding assay (kinase-tagged T7 phage, affinity beads, qPCR), Kd; details: read-out: FGFR3 (Kd nM)
T1 construct: made in house; host or cells: E. coli (BL21-derived), T7 phage
Procedure, shortened: (§1)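 First, phage lysates carrying tagged kinase are made in E. coli at 32° C. Next, they are combined with blocked biotin-ligand streptavidin beads and compound at 0.9% final DMSO. Finally, eluted kinase is measured by qPCR and Kd is fitted with the Hill equation.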

FGFR3 (V555M) = biological target: T2, FGFR3 (V555M) (Homo sapiens, UniProt P22607, V555M); experiment: as above; details: V555M mutant; read-out: FGFR3 (V555M) (Kd nM)
T2 construct: made in house; host or cells: E. coli (BL21-derived), T7 phage
Procedure, shortened: as §1

FGFR4 = biological target: T3, FGFR4 (Homo sapiens, UniProt P22455); experiment: as above; details: read-out: FGFR4 (Kd nM)
T3 construct: made in house; host or cells: E. coli (BL21-derived), T7 phage
Procedure, shortened: as §1

FGFR2 = biological target: T4, FGFR2 (Homo sapiens, UniProt P21802); experiment: as above; details: read-out: FGFR2 (Kd nM)
T4 construct: made in house; host or cells: E. coli (BL21-derived), T7 phage
Procedure, shortened: as §1

FGFR1 = biological target: T5, FGFR1 (Homo sapiens, UniProt P11362); experiment: as above; details: read-out: FGFR1 (Kd nM)
T5 construct: made in house; host or cells: E. coli (BL21-derived), T7 phage
Procedure, shortened: as §1

[1] = test system: KG-1 cell line (FGFR 1-fusion); experiment: Cancer cell line cell viability assay (Cell Titer-Glo), 72 hr; format: cell-based; details: Homo sapiens, KG-1, KG-1 cell line (FGFR1-fusion)
Source text: (§2) Experimental Purpose: To detect the change of intracellular ATP by Cell Titer-Glo® and to evaluate the inhibitory effect of the compounds on cancer cell lines by determining the in vitro IC50 value of the compounds.
(§3) Cell Titer-Glo® 2.0 Luminescent cell viability assay reagent was purchased from Promega (Madison, WI). KG-1, KATO-III, and MDA-MB-453 cell lines were purchased from American Type Culture Collection (Manassas, VA). RT112/84 cell line was purchased from Millipore-Sigma (St. Louis, MO). HuH7 cells were purchased from Seikisui Xenotech (Kansas City, KS). RT112/84 and MDA-MB-453 cells were cultured in RPMI1640 media supplemented with 10% fetal bovine serum. KG-1 and KATO-III cell lines were cultured in IMDM media supplemented with 20% FBS. HuH7 cells were cultured in IMDM media supplemented with 10% FBS. Cultures were maintained at 37° C. in a humidified atmosphere of 5% CO2 and 95% air.
(§4) Cell Viability Assay Procedure: Cells were plated in 96-well clear bottom/white plates (Corning #3903) at a range of densities depending on the optimal assay window (5,000-20,000 cells/well in […] of media), incubated overnight. The next day, test compound DMSO stock solutions were made at 10 mM and […] final concentration. Compounds were then added to cells in a 9-dose, 4-fold dilution series starting at 3 μM with an HP 300e Digital Dispenser (each dose was applied in triplicate). DMSO was backfilled to each well up to 301 nL total volume of test compound+DMSO, and a total of 301 nL DMSO was added to a control/no test compound well in triplicate. The cells in cell culture plates were incubated with the compounds at 37° C. and 5% CO2 for 72 hours-120 hours depending on the cell line. Then 50 μl of Cell Titer Glo 2.0 reagent was added to each well of the cell culture plates. The contents were covered from light and mixed on an orbital shaker at room temperature for minimum of 10 min. Luminescence was recorded by a Clariostar Plus Microplate Reader (BMG Labtech, Cary, NC). Cells were assessed as a percentage of DMSO only treated control cells. Curves were plotted and IC50 values were calculated using the GraphPad Prism 9 program based on a sigmoidal dose-response equation (log (inhibitor) vs. response—Variable slope, 4-parameter).

[2] = test system: KATO-III cell line (FGFR2 amplification); experiment: as above; format: cell-based; details: Homo sapiens, KATO III
Source text: as §2, §3, §4

[3] = test system: RT112/84 cell line (FGFR3-fusion); experiment: as above; format: cell-based; details: Homo sapiens, RT112/84, RT112/84 cell line (FGFR3-fusion)
Source text: as §2, §3, §4

[4] = kinase binding assay, 11-point 3-fold dilution series

T1 sequence (P22607 23-806): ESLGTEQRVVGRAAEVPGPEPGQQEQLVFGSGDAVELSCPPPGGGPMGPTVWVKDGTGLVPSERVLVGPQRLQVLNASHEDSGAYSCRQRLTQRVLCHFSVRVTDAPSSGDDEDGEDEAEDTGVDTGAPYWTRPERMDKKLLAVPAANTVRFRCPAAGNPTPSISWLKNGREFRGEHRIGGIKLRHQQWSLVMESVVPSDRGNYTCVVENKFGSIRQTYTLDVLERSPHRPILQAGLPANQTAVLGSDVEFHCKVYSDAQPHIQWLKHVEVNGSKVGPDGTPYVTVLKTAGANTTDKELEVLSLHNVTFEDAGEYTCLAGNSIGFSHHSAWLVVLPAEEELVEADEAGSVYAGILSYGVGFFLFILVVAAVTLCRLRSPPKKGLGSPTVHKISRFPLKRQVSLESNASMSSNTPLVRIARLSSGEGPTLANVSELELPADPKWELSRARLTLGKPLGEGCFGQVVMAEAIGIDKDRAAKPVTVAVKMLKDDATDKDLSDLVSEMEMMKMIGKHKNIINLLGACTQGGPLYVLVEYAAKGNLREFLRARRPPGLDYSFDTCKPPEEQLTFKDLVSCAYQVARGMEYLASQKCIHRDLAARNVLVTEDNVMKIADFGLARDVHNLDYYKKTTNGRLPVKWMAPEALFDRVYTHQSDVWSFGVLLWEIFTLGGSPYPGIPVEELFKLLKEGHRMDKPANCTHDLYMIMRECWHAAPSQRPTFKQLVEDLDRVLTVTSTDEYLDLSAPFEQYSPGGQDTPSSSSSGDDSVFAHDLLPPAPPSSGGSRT
T2 sequence (P22607 23-806 V555M): as the sequence (P22607 23-806) above, with V533M counted along it
T3 sequence (P22455 22-802): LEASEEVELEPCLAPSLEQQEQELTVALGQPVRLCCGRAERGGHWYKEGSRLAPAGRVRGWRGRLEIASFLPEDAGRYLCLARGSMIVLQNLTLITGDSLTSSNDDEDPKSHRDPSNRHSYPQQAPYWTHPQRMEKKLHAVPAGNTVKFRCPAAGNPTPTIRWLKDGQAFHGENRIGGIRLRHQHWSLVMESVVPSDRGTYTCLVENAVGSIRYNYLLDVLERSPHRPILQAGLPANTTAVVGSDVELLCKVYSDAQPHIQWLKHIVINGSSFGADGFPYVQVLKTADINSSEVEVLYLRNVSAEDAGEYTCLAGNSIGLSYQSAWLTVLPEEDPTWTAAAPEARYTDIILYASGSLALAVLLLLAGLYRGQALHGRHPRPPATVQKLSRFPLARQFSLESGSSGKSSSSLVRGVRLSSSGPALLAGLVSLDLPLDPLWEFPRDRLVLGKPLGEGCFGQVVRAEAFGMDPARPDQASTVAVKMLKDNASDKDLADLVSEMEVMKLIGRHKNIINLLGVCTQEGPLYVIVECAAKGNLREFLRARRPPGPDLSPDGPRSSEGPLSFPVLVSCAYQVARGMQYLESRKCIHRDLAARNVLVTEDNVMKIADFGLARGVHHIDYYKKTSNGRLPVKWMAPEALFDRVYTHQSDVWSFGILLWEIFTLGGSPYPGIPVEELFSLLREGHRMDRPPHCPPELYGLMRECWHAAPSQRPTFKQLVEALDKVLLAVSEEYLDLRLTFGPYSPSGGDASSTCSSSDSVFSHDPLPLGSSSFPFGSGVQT
T5 sequence (P11362 22-822): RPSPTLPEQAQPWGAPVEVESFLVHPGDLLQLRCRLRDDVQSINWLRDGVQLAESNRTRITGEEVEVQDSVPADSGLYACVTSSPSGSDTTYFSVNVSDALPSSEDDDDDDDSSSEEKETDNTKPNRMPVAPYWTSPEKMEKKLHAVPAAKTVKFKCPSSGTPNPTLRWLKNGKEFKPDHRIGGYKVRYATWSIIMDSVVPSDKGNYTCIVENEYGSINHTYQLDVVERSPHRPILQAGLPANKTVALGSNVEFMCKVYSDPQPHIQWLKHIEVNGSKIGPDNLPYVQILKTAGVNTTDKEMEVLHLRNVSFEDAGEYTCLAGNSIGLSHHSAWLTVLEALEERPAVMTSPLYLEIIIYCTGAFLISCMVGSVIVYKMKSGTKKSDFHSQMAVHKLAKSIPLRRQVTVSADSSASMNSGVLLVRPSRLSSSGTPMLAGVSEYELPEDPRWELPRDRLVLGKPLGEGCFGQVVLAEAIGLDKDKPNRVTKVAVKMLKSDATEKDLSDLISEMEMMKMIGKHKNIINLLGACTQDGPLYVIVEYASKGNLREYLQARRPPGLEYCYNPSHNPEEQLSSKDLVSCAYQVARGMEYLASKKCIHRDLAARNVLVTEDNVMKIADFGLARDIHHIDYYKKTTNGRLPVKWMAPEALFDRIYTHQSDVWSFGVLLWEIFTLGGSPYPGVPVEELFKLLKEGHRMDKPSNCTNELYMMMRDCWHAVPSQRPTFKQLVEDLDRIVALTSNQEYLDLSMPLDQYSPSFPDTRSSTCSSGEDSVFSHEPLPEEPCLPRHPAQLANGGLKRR
T4 sequence (P21802 22-821): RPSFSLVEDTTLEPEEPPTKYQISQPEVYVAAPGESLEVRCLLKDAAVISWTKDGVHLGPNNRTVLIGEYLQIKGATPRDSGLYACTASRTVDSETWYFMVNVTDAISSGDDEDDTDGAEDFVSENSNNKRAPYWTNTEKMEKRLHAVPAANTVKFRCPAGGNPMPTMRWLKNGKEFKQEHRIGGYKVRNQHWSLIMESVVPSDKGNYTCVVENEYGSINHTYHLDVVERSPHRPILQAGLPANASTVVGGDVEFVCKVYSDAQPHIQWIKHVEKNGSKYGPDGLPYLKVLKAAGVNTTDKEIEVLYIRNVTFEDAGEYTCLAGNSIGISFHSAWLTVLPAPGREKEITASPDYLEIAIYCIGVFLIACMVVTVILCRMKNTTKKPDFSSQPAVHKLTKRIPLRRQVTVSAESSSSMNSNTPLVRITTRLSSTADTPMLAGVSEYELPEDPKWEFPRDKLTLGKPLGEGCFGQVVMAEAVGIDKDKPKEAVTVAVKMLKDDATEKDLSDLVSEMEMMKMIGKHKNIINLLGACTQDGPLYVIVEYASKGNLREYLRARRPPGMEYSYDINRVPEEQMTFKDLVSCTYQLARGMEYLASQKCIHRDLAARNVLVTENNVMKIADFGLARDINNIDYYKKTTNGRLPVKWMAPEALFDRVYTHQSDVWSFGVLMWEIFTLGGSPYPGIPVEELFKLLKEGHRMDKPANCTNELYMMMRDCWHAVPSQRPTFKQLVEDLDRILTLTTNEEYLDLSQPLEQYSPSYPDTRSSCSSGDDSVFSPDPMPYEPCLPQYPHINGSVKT

| Structure (SMILES) | Kd (FGFR3) | Kd (FGFR3 (V555M)) | Kd (FGFR4) | Kd (FGFR2) | Kd (FGFR1) | pIC50 [1] | pIC50 [2] | pIC50 [3] | Kd (FGFR3; [4]) | Kd (FGFR1; [4]) |
| --- | --- | --- | --- | --- | --- | --- | --- | --- | --- | --- |
| CNC1(C)CN(c2ccc(-c3n[nH]c4cc(F)c(O[C@H](C)c5c(Cl)cncc5Cl)cc34)cn2)C1 [Example 59, 1-[5-[5-[(1R)-1-(3,5-dichloro-4-pyridyl)ethoxy]-6-fluoro-1H-indazol-3-yl]-2-pyridyl]-N,3-dimethyl-azetidin-3-amine] | 1 to 50 nM | 1 to 50 nM | 1 to 50 nM | 1 to 50 nM | 1 to 50 nM | 6.00 to 6.70 | 6.00 to 6.70 | 7.30 to 10.00 | – | – |
| C[C@@H](Oc1cc2c(-c3cnc(N4CC5(CC5)C4)nc3)n[nH]c2cc1F)c1c(Cl)cncc1Cl [Example 60, 3-[2-(5-azaspiro[2.3]hexan-5-yl)pyrimidin-5-yl]-5-[(1R)-1-(3,5-dichloro-4-pyridyl)ethoxy]-6-fluoro-1H-indazole] | 1 to 50 nM | 1 to 50 nM | 1 to 50 nM | 300 to 1000 nM | 50 to 300 nM | < 6.00 | < 6.00 | 6.70 to 7.30 | – | – |
| C[C@@H](Oc1ccc2[nH]nc(-c3ccc(N4CC(C)(NC5CCC5)C4)nc3)c2c1)c1c(Cl)cncc1Cl [Example 63, (R)-N-cyclobutyl-1-(5-(5-(1-(3,5-dichloropyridin-4-yl)ethoxy)-1H-indazol-3-yl)pyridin-2-yl)-3-methylazetidin-3-amine] | 1 to 50 nM | 1 to 50 nM | 1 to 50 nM | 1 to 50 nM | 1 to 50 nM | 6.70 to 7.30 | 7.30 to 10.00 | 7.30 to 10.00 | – | – |
| C[C@@H](Oc1ccc2[nH]nc(-c3ccc(N4CC(C)(NC5COC5)C4)nc3)c2c1)c1c(Cl)cncc1Cl [Example 64, (R)-1-(5-(5-(1-(3,5-dichloropyridin-4-yl)ethoxy)-1H-indazol-3-yl)pyridin-2-yl)-3-methyl-N-(oxetan-3-yl)azetidin-3-amine] | 1 to 50 nM | 1 to 50 nM | 1 to 50 nM | 1 to 50 nM | 1 to 50 nM | 7.30 to 10.00 | 7.30 to 10.00 | 7.30 to 10.00 | – | – |
| COc1cc2[nH]nc(-c3cnc(N4CC5(CC5)C4)c(C#N)c3)c2cc1O[C@H](C)c1c(Cl)cncc1Cl [Example 65, 2-(5-azaspiro[2.3]hexan-5-yl)-5-[5-[(1R)-1-(3,5-dichloro-4-pyridyl)ethoxy]-6-methoxy-1H-indazol-3-yl]pyridine-3-carbonitrile] | – | – | – | 1 to 50 nM | – | 6.00 to 6.70 | < 6.00 | 7.30 to 10.00 | – | – |
| COc1cc2[nH]nc(-c3ccc(N4CC(C)(N[C@H]5CCOC5)C4)nc3)c2cc1O[C@H](C)c1c(Cl)cncc1Cl [Example 66, 1-(5-(5-((R)-1-(3,5-dichloropyridin-4-yl)ethoxy)-6-methoxy-1H-indazol-3-yl)pyridin-2-yl)-3-methyl-N-((S)-tetrahydrofuran-3-yl)azetidin-3-amine] | 1 to 50 nM | 1 to 50 nM | 1 to 50 nM | 1 to 50 nM | 1 to 50 nM | 7.30 to 10.00 | 7.30 to 10.00 | 7.30 to 10.00 | – | – |
| C[C@@H](Oc1cc2c(-c3ccc(N4CC(C)(CP(C)(C)=O)C4)nc3)n[nH]c2cc1F)c1c(Cl)cncc1Cl [Example 67, (R)-((1-(5-(5-(1-(3,5-dichloropyridin-4-yl)ethoxy)-6-fluoro-1H-indazol-3-yl)pyridin-2-yl)-3-methylazetidin-3-yl)methyl)dimethylphos-phine oxide] | 1 to 50 nM | 1 to 50 nM | 1 to 50 nM | 1 to 50 nM | 1 to 50 nM | 6.00 to 6.70 | 7.30 to 10.00 | 7.30 to 10.00 | – | – |
| Cc1ncc(Cl)c([C@@H](C)Oc2ccc3[nH]nc(-c4ccc(N5CC(C)(NC6COC6)C5)nc4)c3c2)c1Cl [Example 70, 1-[5-[5-[(1R)-1-(3,5-dichloro-2-methyl-4-pyridyl)ethoxy]-1H-indazol-3-yl]-2-pyridyl]-3-methyl-N-(oxetan-3-yl)azetidin-3-amine] | 1 to 50 nM | 1 to 50 nM | 1 to 50 nM | 1 to 50 nM | 1 to 50 nM | 6.70 to 7.30 | 7.30 to 10.00 | 7.30 to 10.00 | – | – |
| Cc1ncc(Cl)c([C@@H](C)Oc2ccc3[nH]nc(-c4ccc(N5CC(C)(NC6CCC6)C5)nc4)c3c2)c1Cl [Example 71, N-cyclobutyl-1-[5-[5-[(1R)-1-(3,5-dichloro-2-methyl-4-pyridyl)ethoxy]-1H-indazol-3-yl]-2-pyridyl]-3-methyl-azetidin-3-amine] | 1 to 50 nM | 1 to 50 nM | 1 to 50 nM | 1 to 50 nM | 1 to 50 nM | 6.00 to 6.70 | 6.70 to 7.30 | 7.30 to 10.00 | – | – |
| CCN(CC)C1(C)CN(c2ccc(-c3n[nH]c4ccc(O[C@H](C)c5c(Cl)cnc(C)c5Cl)cc34)cn2)C1 [Example 72, 1-[5-[5-[(1R)-1-(3,5-dichloro-2-methyl-4-pyridyl)ethoxy]-1H-indazol-3-yl]-2-pyridyl]-N,N-diethyl-3-methyl-azetidin-3-amine] | 1 to 50 nM | 1 to 50 nM | 1 to 50 nM | 1 to 50 nM | 1 to 50 nM | 6.00 to 6.70 | 6.70 to 7.30 | 7.30 to 10.00 | – | – |
| COc1cc2[nH]nc(-c3ccc(N4CC(C)(N[C@@H]5CCOC5)C4)nc3)c2cc1O[C@H](C)c1c(Cl)cncc1Cl [Example 73, 1-(5-(5-((R)-1-(3,5-dichloropyridin-4-yl)ethoxy)-6-methoxy-1H-indazol-3-yl)pyridin-2-yl)-3-methyl-N-((R)-tetrahydrofuran-3-yl)azetidin-3-amine] | 1 to 50 nM | 1 to 50 nM | 1 to 50 nM | 1 to 50 nM | 1 to 50 nM | 7.30 to 10.00 | 7.30 to 10.00 | 7.30 to 10.00 | – | – |
| C[C@@H](Oc1ccc2[nH]nc(-c3ccc(N4CC(N)(c5ccn(C)n5)C4)nn3)c2c1)c1c(Cl)cncc1Cl [Example 388, (R)-1-(6-(5-(1-(3,5-dichloropyridin-4-yl)ethoxy)-1H-indazol-3-yl)pyridazin-3-yl)-3-(1-methyl-1H-pyrazol-3-yl)azetidin-3-amine] | – | – | – | – | – | 6.00 to 6.70 | 6.70 to 7.30 | 7.30 to 10.00 | 1 to 50 nM | 1 to 50 nM |
| CCOCC1(N)CN(c2ncc(-c3n[nH]c4ccc(O[C@H](C)c5c(Cl)cncc5Cl)cc34)cc2F)C1 [Example 390, 1-[5-[5-[(1R)-1-(3,5-dichloro-4-pyridyl)ethoxy]-1H-indazol-3-yl]-3-fluoro-2-pyridyl]-3-(ethoxymethyl)azeti-din-3-amine] | – | – | – | – | – | 6.70 to 7.30 | 7.30 to 10.00 | 7.30 to 10.00 | 1 to 50 nM | 1 to 50 nM |
| C[C@@H](Oc1ccc2[nH]nc(-c3ccc(N4CC(N)(c5ccnn5C)C4)nn3)c2c1)c1c(Cl)cncc1Cl [Example 391, (R)-1-(6-(5-(1-(3,5-dichloropyridin-4-yl)ethoxy)-1H-indazol-3-yl)pyridazin-3-yl)-3-(1-methyl-1H-pyrazol-5-yl)azetidin-3-amine] | – | – | – | – | – | 6.70 to 7.30 | 7.30 to 10.00 | 7.30 to 10.00 | 1 to 50 nM | 1 to 50 nM |
| C[C@@H](Oc1ccc2[nH]nc(-c3cnc(N4CC(N)(c5ccnn5C)C4)c(F)c3)c2c1)c1c(Cl)cncc1Cl [Example 392, (R)-1-(5-(5-(1-(3,5-dichloropyridin-4-yl)ethoxy)-1H-indazol-3-yl)-3-fluoropyridin-2-yl)-3-(1-methyl-1H-pyrazol-5-yl)azetidin-3-amine] | – | – | – | – | – | 6.70 to 7.30 | 7.30 to 10.00 | 7.30 to 10.00 | 1 to 50 nM | 1 to 50 nM |
